{
  "source": "patent US20250369031A1",
  "about": "“METHODS OF DETERMINING CERULOPLASMIN ACTIVITY AND APPLICATIONS THEREOF” (ACADEMIA SINICA, priority 2022, published 2025)",
  "assay_type_in_all_cases": "biochemical",
  "key": {"serum oxidases [1]": {"system": "serum oxidases", "assay": "Library screening with serum, ESI-MS monitoring of oxidized products", "conditions": "acetate buffer pH 5.0, 37° C., 1 h", "description": "The chemical library dissolved in DMSO individually to give stock concentrations of 1 mg/mL. Each chemical was placed in individual well and incubated with serum sample in acetate buffer (0.1M, pH 5.0) at 37° C. for 1 h. Additional DMSO was provided to inhibit oxidase activity. High-resolution ESI mass spectra (Bruker Daltonics spectrometer) was utilized to monitor the oxidized products.\nTo screen for suitable compounds as Cp substrates for MS analysis, an approach of combinatorial library screening in primary MS analysis was used to find out oxidized products and their relationship with initial substrates. Briefly, a platform for rapidly and conveniently screening various small molecules was established. In the chemical library collection as obtained, including natural products, synthetic compounds and heterocyclic molecules, each member was parallelly incubated with a certain small amount of serum for a desired reaction time. After quenching each enzyme reaction, analysis of the reaction products with ESI-MS was performed. Hits with reliable, major, and distinct oxidized product peaks in ESI-MS analysis were selected for further studies (FIG. 1)."}, "ceruloplasmin [2]": {"molecular_target": "T1, ceruloplasmin (Homo sapiens, UniProt P00450)", "T1 sequence (P00450 20-1065)": "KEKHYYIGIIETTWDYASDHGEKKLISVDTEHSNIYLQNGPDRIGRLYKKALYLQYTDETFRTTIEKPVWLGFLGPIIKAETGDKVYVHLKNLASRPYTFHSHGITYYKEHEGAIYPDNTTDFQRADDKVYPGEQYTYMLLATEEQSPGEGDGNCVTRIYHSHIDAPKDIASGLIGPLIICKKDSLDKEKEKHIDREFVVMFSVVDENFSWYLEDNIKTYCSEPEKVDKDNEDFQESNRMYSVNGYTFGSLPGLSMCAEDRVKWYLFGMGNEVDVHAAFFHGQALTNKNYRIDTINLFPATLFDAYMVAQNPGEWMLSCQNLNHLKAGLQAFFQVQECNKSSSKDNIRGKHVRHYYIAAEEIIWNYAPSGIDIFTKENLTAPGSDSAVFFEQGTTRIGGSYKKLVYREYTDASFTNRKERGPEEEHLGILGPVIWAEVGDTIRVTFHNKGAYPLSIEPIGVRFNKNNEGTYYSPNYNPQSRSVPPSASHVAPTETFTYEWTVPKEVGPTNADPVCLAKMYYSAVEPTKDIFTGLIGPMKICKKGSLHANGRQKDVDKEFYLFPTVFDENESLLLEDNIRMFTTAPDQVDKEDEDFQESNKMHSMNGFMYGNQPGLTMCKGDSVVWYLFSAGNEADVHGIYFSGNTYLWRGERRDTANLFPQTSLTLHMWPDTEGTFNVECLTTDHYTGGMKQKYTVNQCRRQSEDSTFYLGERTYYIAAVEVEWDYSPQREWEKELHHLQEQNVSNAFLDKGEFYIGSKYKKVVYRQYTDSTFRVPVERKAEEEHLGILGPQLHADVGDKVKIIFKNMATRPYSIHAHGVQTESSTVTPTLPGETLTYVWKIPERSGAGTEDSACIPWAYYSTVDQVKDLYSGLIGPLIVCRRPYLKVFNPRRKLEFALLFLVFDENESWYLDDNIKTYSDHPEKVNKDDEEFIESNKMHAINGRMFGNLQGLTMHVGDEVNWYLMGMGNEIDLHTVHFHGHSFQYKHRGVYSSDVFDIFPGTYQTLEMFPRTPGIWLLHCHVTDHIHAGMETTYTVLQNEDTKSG", "assay": "Ceruloplasmin spike-in experiment in normal serum, LC-MS/MS", "description": "To understand the relation between ceruloplasmin and serum oxidases and the reactivity of modified substrates and ceruloplasmin, spike-in experiment was performed. […] The assay was incubated at 37° C. for 30 mins, and quenching the reaction by DMSO. The final products were analyzed by LC-MS/MS."}, "ceruloplasmin [3]": {"molecular_target": "T1, ceruloplasmin", "assay": "Cp activity in newborn plasma, LCMS", "parameters": "Ceruloplasmin is made in the liver and then secreted into the blood; from tissue; host or cells: serum / plasma (normal adult, newborn; Cp-depleted serum by 100 kDa filtration as comparison)", "conditions": "without dilution", "excerpt": "The DMSO quenched mixture were detected by LCMS without dilution."}, "serum oxidases [4]": {"system": "serum oxidases", "assay": "LC-MS/MS based serum oxidase activity assay", "procedure": "Samples were detected by LC-ESI-MS on a Velos Pro dual-pressure linear ion trap mass spectrometer (Thermo Fisher Scientific, San Jose, CA) equipped with an Ultimate 3000 RSLC system from Dionex (Dionex Corporation, Sunnyvale, CA), using a Xbridge C18 (HPLC column 1 mm×15 cm i.d., 3.5 μm particle size, 130 Å pore size). Briefly, the gradient employed was 50% buffer B at 5 min to 98% buffer B at 23 min with a flow rate of 50 μL/min, where buffer A was 0.1% formic acid/H2O and buffer B was 0.1% formic acid/acetonitrile. All spectra were acquired in the mass range m/z 200-2000. Electrospray voltage was maintained at 4.0 kV and capillary temperature was set at 275° C.\nThe stock solution of modified amino carbazoles (125 μM, 20 μL) were incubated with 5 μL of serum (estimate<10 nM of serum oxidases) in sodium acetate buffer (0.1M, pH 5.0, 5 μL) at 37° C. for 30 min. The serum oxidase oxidation was quenched by DMSO (90 μL), followed detection of LC-MS/MS.\nThe amount of the oxidized product was determined according to the area under the peak by integration. The specific Cp activity unit was calculated by the formula: Peak area of oxidized product MS2 ion/serum volume (μL).\nThe addition of DMSO was to quench the serum enzyme activity. After centrifugation, the supernatant of the mixture was detected by LC-MS/MS."}, "ceruloplasmin [5]": {"molecular_target": "T1, ceruloplasmin", "assay": "Cp-depletion test (serum filtered to remove proteins larger than 100 kDa), LCMS", "parameters": "Ceruloplasmin is made in the liver and then secreted into the blood; from tissue; host or cells: serum / plasma (normal adult, newborn; Cp-depleted serum by 100 kDa filtration as comparison)", "conditions": "Cp-depleted serum 5 μL, 30 min, 37° C.", "description": "Normal adult serum and plasma were controls. After incubation, the DMSO quenched mixture were 100-folds diluted and detected by LCMS.\nThe Cp depletion serum was obtained by size selection method. Briefly, the centrifuge filter was applied in normal serum to eliminate those proteins larger than 100 kDa, including Cp (˜130 kDa)."}, "ceruloplasmin [6]": {"molecular_target": "T1, ceruloplasmin", "assay": "Colorimetric methods for ceruloplasmin oxidative activity", "parameters": "Ceruloplasmin is made in the liver and then secreted into the blood; from tissue; host or cells: serum / plasma (normal adult, newborn; Cp-depleted serum by 100 kDa filtration as comparison)", "conditions": "serum volume small than 10 μL", "excerpt": "FIGS. 8A and 8B show the limitations of detection by current methods known in the art. […] The specific activity units of Cp are not reliable in lower volume of serum.\nThe limitations of current methods and available commercial kits were described. In current method, the colorimetric methods using p-phenylenediamine (PPD) and o-dianisidine dihydrochloride (ODD) as substrates are used for quantification of ceruloplasmin oxidative activity. […] The activity of ceruloplasmin were positively correlated to absorbance. However, the correlation of absorbance and serum volume small than 10 μL was poor (FIG. 8)."}},
  "data": [
    {"smiles": "NCCc1c[nH]c2ccc(O)cc12", "note": "[ACK-1000, Serotonin (or 5-Hydroxytryptamine)]", "values": [
      {"measurement": "products generated when reacting with serum oxidases", "setting": "serum oxidases [1]", "result": "specific oxidized products"}
    ]},
    {"smiles": "CCCCn1c2ccccc2c2cc(N)ccc21", "note": "[ACK-1001, 9-buyl-9H-carbazol-3-amine]", "values": [
      {"measurement": "products generated when reacting with serum oxidases", "setting": "serum oxidases [1]", "result": "specific oxidized products"}
    ]},
    {"smiles": "CCn1c2ccccc2c2cc(N)ccc21", "note": "[ACK-1006, 9-ethyl-9H-carbazol-3-amine]", "values": [
      {"measurement": "oxidation of substrate by recombinant ceruloplasmin", "setting": "ceruloplasmin [2]", "result": "could be oxidized by recombinant ceruloplasmin"},
      {"measurement": "LCMS signal of oxidized substrate in new born plasma", "setting": "ceruloplasmin [3]; new born plasma 5 μL, 30 min, 37° C.", "result": "> 10^5"},
      {"measurement": "signal of oxidative substrate in CP-depletion plasma compared with newborn plasma", "setting": "ceruloplasmin [3]", "result": "significantly lower"},
      {"measurement": "signal intensity of m/z transition of the oxidized product", "setting": "serum oxidases [4]; after 1000-fold dilution, serum less than 5 μL", "result": "> 10^3"},
      {"measurement": "reaction time at which oxidized product reached highest amount", "setting": "serum oxidases [4]; time-dependent assay", "result": 30, "unit": "min"},
      {"measurement": "oxidized product detected with Cp depleted serum", "setting": "ceruloplasmin [5]", "result": "trace amount"}
    ]},
    {"smiles": "COc1cc(-c2ccc(N)c(OC)c2)ccc1N.Cl.Cl", "note": "[o-dianisidine dihydrochloride (ODD), o-dianisidine dihydrochloride]", "values": [
      {"measurement": "correlation of absorbance and serum volume", "setting": "ceruloplasmin [6]", "result": "poor"}
    ]},
    {"smiles": "Nc1ccc(N)cc1", "note": "[p-phenylenediamine (PPD), p-phenylenediamine]", "values": [
      {"measurement": "correlation of absorbance and serum volume", "setting": "ceruloplasmin [6]", "result": "poor"}
    ]}
  ]
}
